Entries after “also recorded” stand apart in the source; their conditions may differ.
What was measured:
MLDS CD1 mice = assay: Prevention of multiple-low-dose-streptozotocin (MLDS) induced diabetes by daily GABA injection; type: in vivo
Procedure: As shown in the FIG. 1, the diabetes induction by multiple-low-dose-streptozotocin (i.p. 40 mg/kg for four consecutive days, MLDS) in mice can be prevented by daily injection of GABA. The MLSD murine model is commonly used for study of T1D (Rossini A A et al, 1978 Nature. 276(5684):182-4; Harlan D M et al, 1995 Diabetes 44(7):816-23) in which the beta-cells are destroyed by the toxic streptozotocin that leads to insulin insufficiency. To certain extent, T-cell mediated beta-cell inflammation (insulitis) is found in the multiple-low-dose streptozotocin induced diabetic hyperglycemia. However, insulitis may not be necessary occurred in the hyperglycemic mice induced by one injection of streptozotocin of high dose (i.e. 200-250 mg/kg), as in the latter case the beta-cell are rapidly destroyed. […] GABA has no effect on the glucose tolerance in normal mice as determined by intraperitoneal glucose tolerance test (IPGTT) 7 days before STZ injection.
(§1) The techniques used for the in vivo and in vitro studies in this embodiment of the disclosure are also described. CD1 mice (Charles River Laboratories, St Constant, Canada), NOD mice and transgenic TCR NOD mice (Jackson Laboratory, USA) were housed under a controlled temperature and a 12-h light/12-h dark cycle in the St. Michael's Hospital Animal facility with free access to food (normal rodent chow) and water, except where noted. All procedures were conducted according to protocols and guidelines approved by the Canadian Council of Animal Care and the St. Michael's Hospital Animal Care committee. Mice were treated with GABA by daily intraperitoneal (i.p.) injection of 20·g GABA per mouse to reach ˜200 μM circulation concentration and PBS as control. The daily treatment is continuously conducted during 60-day experimental period. One wk after the GABA and PBS treatment, diabetes was induced in both groups by i.p.-injection of low-dose streptozotocin (STZ, Sigma Chemical Co., St. Louis, Mo. 40 mg/kg body weight) for 5 consecutive days. The development of hyperglycemia was monitored by measuring blood glucose from the tail vein every third day following STZ injections using an Ascensia ELITE® XL glucose meter. For some studies, overtly diabetic mice induced by STZ and without GABA treatment were divided into two groups: one group started receiving daily i.p. injection of 20·g GABA whereas other group received only PBS. The treatment was continued for 75 days. The handling of the NOD mice were similar to those CD1 mice except the STZ injection. The NOD mice have a susceptibility to spontaneous development of autoimmune T1D. The TCR transgenic 8.3-NOD mice have a markedly accelerated disease (J. Vergdaguer et al, 1997 J Exp Med. 186(10):1663-76).
Groups of mice were subject to a glucose tolerance test (IPGTT) before treatment (day 0), one, three, and five weeks after administration and the day prior termination. For IPGTT, mice were fasted overnight for 15 h, and were given 1.5 g glucose/kg body weight via i.p.-injection. Blood was drawn from the tail vein and blood glucose was measured at 0, 10, 20, 30, 60, 90, and 120 min after glucose administration.
Insulin tolerance test (ITT) was performed in non-fasting mice by i.p.-injection of 2.5 unit insulin/kg body weight. Blood was drawn from the tail vein and blood glucose levels were measured at 0, 20, 30, 40, 60, 90, and 120 min after insulin administration. Glucagon tolerance test (GTT) was performed in 15 hrs fasted mice: glucagon were i.p.-injected (50 ng/g body weight) and blood was drawn from the tail vein and blood glucose levels were measured at 0, 10, 20, 30, 60, 90, and 120 min after glucagon administration.
Mice were housed in metabolic cages prior to initiation of GABA and PBS treatment and before termination of experiments. Food intake, water consumption and urine output were measured. To determine the fat distribution, three intra-abdominal fat pads retroperitoneal, mesenteric and epididymal were dissected and weighed. […]

[1] = tested on: established diabetic hyperglycemic NOD mice; assay: Treatment of established diabetes in NOD mice (GABA alone or GABA plus Ex4); type: in vivo
Procedure: as §1
Mice were housed in metabolic cages prior to initiation of GABA and PBS treatment and before termination of experiments. Food intake, water consumption and urine output were measured. To determine the fat distribution, three intra-abdominal fat pads retroperitoneal, mesenteric and epididymal were dissected and weighed. Subcutaneous fat was also analyzed.
All data are presented as mean±SEM. Statistic analysis was performed using Student's t-test or analysis of variance (ANOVA) with ‘n−1’ post hoc custom hypotheses tests, as appropriate, with the SAS software (Statistical Analysis Systems, Cary, N.C.) or the GraphPad Prism 3.0 program (GraphPad Software Inc., San Diego, Calif.). The incidence of diabetes was plotted using the Kaplan-Meier method and statistical comparisons made with the log-rank test. The significance of differences in insulitis scores was determined with the Chi-squared test. The differences between groups in the in vitro proliferation and cytokine release assays were determined by analysis of variance (ANOVA). Significance was assumed at p<0.05.

INS-1 cells = assay: Cell proliferation assay by 3H-thymidine incorporation; type: cell-based
Procedure: INS-1 cells were grown to 80-85% confluence in 12-well plates, serum-starved for 24 h and then treated with GABA at various concentrations in the presence of 3 mmol/l glucose. Some cells were also pre-incubated with GABA receptor antagonist for 20 h prior before the treatment. DNA synthesis was measured by incubating cells with 37 kBq/ml 3H-methylthymidine (specific activity: 3000 GBq/mmol; Amersham Pharmacia Biotech) for 4 h. Cells were then washed twice in ice-cold PBS and incubated for 30 min in 1 ml of 5% trichloroacetic acid on ice to precipitate the DNA. The liquid layer was removed by aspiration and 250 μl of 0.1 mol/l sodium hydroxide was added to the cells for 30 min at room temperature. During this time the container was gently shaken. The solubilised material was then transferred to 5 ml of scintillant, and radioactive counts were determined by liquid scintillation counting.

[2] = GABA treated vs non-treated MLDS-mice
[3] = GABA treated vs untreated MLDS-mice
[4] = GABA vs non-GABA treated MLDS-mice
[5] = pancreatic immunohistochemistry, vs non-treated MLDS-mice

## NCCCC(=O)O [GABA, gamma-aminobutyric acid]
MLDS CD1 mice; 7 days before STZ injection
  glucose tolerance in normal mice (IPGTT): no effect
MLDS CD1 mice; [2]
  glucose tolerance (IPGTT): significant improved glucose tolerance; also recorded: maintained close to normal glucose tolerance
  glucose tolerance, area under curve: significantly improved
MLDS CD1 mice; [3]
  circulating insulin: significantly elevated circulating insulin levels
  ratio of insulin to glucagon levels: increased ratio of insulin to glucagon levels; also recorded: significantly increased insulin/glucagon ratio
  serum glucagon levels: reduced serum glucagon levels; also recorded: significantly reduced glucagon levels
MLDS CD1 mice; [4]
  circulating IL-12: significantly reduced
  circulating INF-gamma: significantly reduced
  circulating level of TNF-alpha: significantly decreased
  circulating level of pro-inflammatory IL-1 (IL-1-beta): significantly decreased
  serum level of IL-6: not different
  serum level of Th2 cytokine IL-10: not different
MLDS CD1 mice; MLDS mice, metabolic studies
  diabetic symptoms such as polydipsia and polyuria: significantly improved diabetic symptoms
MLDS CD1 mice; MLDS mice, throughout the feeding course
  diabetic sickness: not found in any mouse
MLDS CD1 mice; MLDS-mice
  glucagon tolerance (glucagon tolerance test): significantly improved glucagon tolerance; also recorded: largely improved
  improvement of glucagon intolerance, area under curve: statistically significant
  insulin sensitivity (insulin tolerance test): does not alter the insulin sensitivity; also recorded: did not alter the insulin sensitivity
  insulitis scored by HE staining for infiltrated lymphocytes in the islets: significant reduction of insulitis
MLDS CD1 mice; after 7-day MLDS injection, control mice 8 of total 8
  number of GABA treated STZ mice that developed overt hyperglycemia: one
MLDS CD1 mice; daily i.p. GABA 20·g/mouse, MLDS CD1 mice, vs untreated
  development of diabetic hyperglycemia (blood glucose): prevents development of diabetic hyperglycemia; also recorded: remarkably prevented development of hyperglycemia
MLDS CD1 mice; [5]
  alpha-cell mass: significantly reduced alpha-cell mass
  beta-cell mass: significantly reserved the beta-cell mass
[1]; GABA alone
  time for which lower blood glucose levels were maintained: about two
[1]; GABA vs PBS, after onset of hyperglycemia
  blood glucose levels: significantly reduced blood glucose levels
[1]; GABA-treated group
  sickness: no obvious sickness was developed
[1]; GABA-treated vs PBS
  diabetic symptoms (metabolic studies): significantly lessened
[1]; after onset of diabetic hyperglycemia, combination determined at two weeks after treatment
  reversal of diabetic hyperglycemia / remission: transient effect; also recorded: not able to achieve a full remission; also recorded: not effective in completely reversing diabetic hyperglycemia
[1]; diabetes when blood glucose ≧12 mM, GABA 20·g mouse, Ex4 1 nmol/kg, therapies PBS, GABA alone, GABA plus Ex4
  incidence of diabetes: significantly lower
[1]; established diabetic NOD mice
  feces: reduced
  food intake: reduced
  urine: reduced
  water consumption: reduced
INS-1 cells; GABA 100 mM, time-dependent manner
  3H-thymidine incorporation into INS-1 cells: increased the ^3H-thymidine incorporation
INS-1 cells; various concentrations, 3 mmol/l glucose
  INS-1 cell proliferation (3H-thymidine incorporation): dose-dependently increased INS-1 cell proliferation
